Measurements taken from PMC7115507 (European Journal of Medicinal Chemistry, 2019).
Entries after “also recorded” stand apart in the source; their conditions may differ. Read-outs that look alike come from different tables or passages of the source.

How the values were obtained:
[1] = test system: CHIKV; conditions: cited from earlier work
[2] = test system: SARS-CoV; conditions: cited from earlier work
[3] = test system: MERS-CoV; conditions: cited from earlier work
[4] = test system: ZIKV; conditions: cited from earlier work
[5] = target: SAH hydrolase (Homo sapiens, UniProt P23526); format: biochemical
SAH hydrolase, sequence (P23526 whole entry): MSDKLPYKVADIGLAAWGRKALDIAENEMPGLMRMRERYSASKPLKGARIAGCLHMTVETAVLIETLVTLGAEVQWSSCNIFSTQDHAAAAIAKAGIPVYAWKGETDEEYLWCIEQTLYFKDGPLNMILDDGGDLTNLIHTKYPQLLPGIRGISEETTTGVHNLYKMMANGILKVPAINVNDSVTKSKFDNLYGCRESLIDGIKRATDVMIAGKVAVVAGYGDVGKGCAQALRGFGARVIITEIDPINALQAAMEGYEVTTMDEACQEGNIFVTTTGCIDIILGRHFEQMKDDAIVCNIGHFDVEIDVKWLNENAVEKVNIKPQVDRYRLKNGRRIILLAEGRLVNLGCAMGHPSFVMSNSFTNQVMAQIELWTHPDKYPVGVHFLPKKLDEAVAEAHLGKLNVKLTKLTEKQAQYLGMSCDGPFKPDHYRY

[6] = test system: HSV-1; conditions: cited from earlier work
[7] = test system: HSV-2; conditions: cited from earlier work
[8] = test system: CHIKV; format: cell-based, Chikungunya virus
[9] = test system: Vero E6 cells; test: Cytotoxicity; conditions: highest dose tested
[10] = test system: SARS-CoV; format: cell-based, severe acute respiratory syndrome coronavirus
[11] = test system: MERS-CoV; format: cell-based, Middle East respiratory syndrome coronavirus
[12] = test system: ZIKV; format: cell-based, Zika virus

Nc1ncnc2c1ncn2[C@H]1[C@H](O)[C@H](O)[C@@H](CO)C1(F)F [Compound 2b, 6,6′-difluoro-aristeromycin]
antiviral activity against CHIKV (in words) [1]: broad-spectrum antiviral activity
antiviral activity against CHIKV (in words) ([1]; listed as 2): potent antiviral activities
antiviral activity against SARS-CoV (in words) [2]: broad-spectrum antiviral activity; also recorded: potent antiviral activities
antiviral activity against MERS-CoV (in words) [3]: broad-spectrum antiviral activity; also recorded: potent antiviral activities
antiviral activity against ZIKV (in words) [4]: broad-spectrum antiviral activity
antiviral activity against ZIKV (in words) ([4]; listed as 2): potent antiviral activities

OCC[C@@H]1[C@@H](O)[C@@H](O)[C@H](n2cnc3c(O)ncnc32)[C@@H]1F [Compound 3c, 9-((1S,2R,3R,4R,5S)-2-fluoro-4,5-dihydroxy-3-(2-hydroxyethyl)cyclopentyl)-1,9-dihydro-6H-purin-6-one]
inhibition of SAH hydrolase at the highest dose tested (in words) [5]: no inhibitory activity was observed

Nc1ncnc2c1ncn2C1CC(CCO)C(O)C1O (single isomer, unassigned; (-)) [(−)-homoaristeromycin]
activity against HSV-1 (in words) [6]: inactive
activity against HSV-2 (in words) [7]: inactive

Nc1ncnc2c1ncn2[C@H]1[C@H](O)[C@H](O)[C@@H](CCO)[C@H]1F [Compound 3a, (1R,2S,3S,4R,5R)-3-(6-Amino-9H-purin-9-yl)-4-fluoro-5-(2-hydroxyethyl)cyclopentane-1,2-diol]
potency towards SAH hydrolase relative to 3d [5]: 5.6 times
selectivity index (SI) [8]: more than 2083
concentration up to which no noticeable cytotoxicity was seen [9]: > 250 µM

Nc1ncnc2c1ncn2[C@H]1[C@H](O)[C@H](O)[C@@H](CO)[C@H]1F [Compound 2a, 6′-β-fluoro-aristeromycin]
antiviral activity against CHIKV (in words) [8]: inactive

Nc1ncnc2c1ncn2[C@H]1[C@H](O)[C@H](O)[C@@H](CCO)C1(F)F [Compound 3d]
antiviral activity against CHIKV (in words) [8]: did not exhibit antiviral activity
antiviral activity against SARS-CoV (in words) [10]: did not exhibit antiviral activity
antiviral activity against MERS-CoV (in words) [11]: did not exhibit antiviral activity
antiviral activity against ZIKV (in words) [12]: did not exhibit antiviral activity
